Experiment [1] concerns the target CDK6/CyclinD3 (Homo sapiens, UniProt Q00534). The experiment can be described thus: ADP Glo kinase assay, CDK6/CyclinD3. The following applies: for remaining activity at 1 µM: compound at 1 μM, read-out: Residual enzymatic activity (%) at 1 μM, CDK6 D3. Type of experiment: biochemical. The procedure, abridged: (§1)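 First, compounds are diluted 1:3 across ten points from 10 to 0.0005 μM in 0.5% DMSO. Next, kinase reactions run at room temperature for an optimised period. Finally, ADP Glo reagent is added to stop them.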
A general note: In ADP-Glo the light output rises with the ADP produced.

In experiment [2] the target is CDK9/CyclinT1 (Homo sapiens, UniProt P50750). Nature of the experiment: ADP Glo kinase assay, CDK9/CyclinT1. Format: biochemical. The following applies: CDK9/CyclinT1; Km ATP; read-out: Enzymatic inhibition, Ki, CDK9 T1. An outline of the steps:
as §1

The subject of experiment [3] is MV-4-11. The experiment can be described thus: Proliferation assay (resazurin, leukemia cell lines), MV-4-11. As to conditions: Homo sapiens, MV4-11, read-out: 72 h Growth inhibition GI50, MV-4-11 cells. Format: cell-based. The text has this:
The following compounds were used as comparators.
On the technique in general: Resazurin is reduced to fluorescent resorufin, in cell work by metabolically active cells.

Experiment [4] concerns the target CDK1/CyclinB (Homo sapiens, UniProt P06493). The experiment can be described thus: ADP Glo kinase assay, CDK1/CyclinB. Type of experiment: biochemical. As to conditions: for remaining activity at 1 µM: compound at 1 μM, read-out: Residual enzymatic activity (%) at 1 μM, CDK1 B. An outline of the steps: as §1
Experiment [5] deals with CDK4/CyclinD1 (Homo sapiens, UniProt P11802). Nature of the experiment: ADP Glo kinase assay, CDK4/CyclinD1. Type of experiment: biochemical. As to conditions: for remaining activity at 1 µM: compound at 1 μM, read-out: Residual enzymatic activity (%) at 1 μM, CDK4 D1. An outline of the steps: as §1
CDK4/CyclinD1, sequence (P11802 whole entry, species assumed): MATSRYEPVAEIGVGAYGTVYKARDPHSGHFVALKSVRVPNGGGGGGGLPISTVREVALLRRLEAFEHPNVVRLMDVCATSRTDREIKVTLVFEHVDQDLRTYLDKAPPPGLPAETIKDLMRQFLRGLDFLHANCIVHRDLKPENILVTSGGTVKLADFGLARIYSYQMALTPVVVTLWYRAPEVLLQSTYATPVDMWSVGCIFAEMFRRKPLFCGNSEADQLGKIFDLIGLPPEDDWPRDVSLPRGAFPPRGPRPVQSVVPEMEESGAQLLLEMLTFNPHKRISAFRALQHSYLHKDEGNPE
CDK4/CyclinD1, sequence (P24385 whole entry partner, species assumed): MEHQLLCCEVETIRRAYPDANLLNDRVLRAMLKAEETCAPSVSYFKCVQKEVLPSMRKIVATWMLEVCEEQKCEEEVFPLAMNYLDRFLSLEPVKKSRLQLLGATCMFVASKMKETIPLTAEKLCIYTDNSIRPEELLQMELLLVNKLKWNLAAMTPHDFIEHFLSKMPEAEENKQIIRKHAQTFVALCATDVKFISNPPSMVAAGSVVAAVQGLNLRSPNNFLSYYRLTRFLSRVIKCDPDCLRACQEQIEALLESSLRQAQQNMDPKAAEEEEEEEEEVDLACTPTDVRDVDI
For experiment [6], the target named is T1, FLT3-ITD (Homo sapiens, UniProt P36888).
T1 sequence (P36888 1-993): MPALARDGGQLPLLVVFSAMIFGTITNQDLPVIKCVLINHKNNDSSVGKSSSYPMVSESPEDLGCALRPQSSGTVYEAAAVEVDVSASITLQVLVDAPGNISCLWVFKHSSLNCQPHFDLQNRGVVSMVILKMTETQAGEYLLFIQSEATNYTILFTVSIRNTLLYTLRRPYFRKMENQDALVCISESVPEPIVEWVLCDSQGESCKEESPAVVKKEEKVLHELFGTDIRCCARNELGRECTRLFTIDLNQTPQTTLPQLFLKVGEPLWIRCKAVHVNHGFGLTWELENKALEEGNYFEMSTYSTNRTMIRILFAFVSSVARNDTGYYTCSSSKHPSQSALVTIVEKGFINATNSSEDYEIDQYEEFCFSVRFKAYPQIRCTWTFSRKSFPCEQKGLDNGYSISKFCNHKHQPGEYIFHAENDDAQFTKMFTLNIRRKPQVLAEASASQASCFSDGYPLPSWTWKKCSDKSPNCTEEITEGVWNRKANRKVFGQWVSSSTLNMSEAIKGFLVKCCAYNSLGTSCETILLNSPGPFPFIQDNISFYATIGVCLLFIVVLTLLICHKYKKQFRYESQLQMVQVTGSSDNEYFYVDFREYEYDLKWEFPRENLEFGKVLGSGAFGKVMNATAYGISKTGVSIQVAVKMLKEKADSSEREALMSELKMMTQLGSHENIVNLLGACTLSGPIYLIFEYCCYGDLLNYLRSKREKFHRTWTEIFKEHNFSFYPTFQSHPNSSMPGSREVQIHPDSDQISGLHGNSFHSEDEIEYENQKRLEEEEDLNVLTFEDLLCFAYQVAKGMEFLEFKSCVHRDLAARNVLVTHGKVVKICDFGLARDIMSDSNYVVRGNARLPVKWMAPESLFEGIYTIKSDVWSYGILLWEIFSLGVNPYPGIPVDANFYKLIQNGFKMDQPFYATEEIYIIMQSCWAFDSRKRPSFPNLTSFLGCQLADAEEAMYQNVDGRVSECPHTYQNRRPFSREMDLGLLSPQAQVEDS
Nature of the experiment: ADP Glo kinase assay, FLT3-ITD. Type of experiment: biochemical. The following applies: Km ATP 100 μM, read-out: Enzymatic inhibition, Ki, FLT3-ITD. An outline of the steps:
as §1

For experiment [7], the target named is CDK2/CyclinA2 (Homo sapiens, UniProt P24941). The experiment can be described thus: ADP Glo kinase assay, CDK2/CyclinA2. Type of experiment: biochemical. The following applies: for remaining activity at 1 µM: compound at 1 μM, read-out: Residual enzymatic activity (%) at 1 μM, CDK2 A; for Ki: Km ATP, read-out: Enzymatic inhibition, Ki, CDK2 A. The procedure, abridged: as §1

Experiment [8] addresses CDK7/CyclinH/Mat1 (Homo sapiens, UniProt P50613). The experiment can be described thus: ADP Glo kinase assay, CDK7/CyclinH/Mat1. Format: biochemical. As to conditions: for remaining activity at 1 µM: compound at 1 μM, read-out: Residual enzymatic activity (%) at 1 μM, CDK7 H; for Ki: Km ATP, read-out: Enzymatic inhibition, Ki, CDK7 H. The procedure, abridged:
as §1

Here are results for eleven molecules from patent US20240158391A1, “DERIVATIVES OF 4-(IMIDAZO[1,2-A]PYRIDIN-3-YL)-N-(PYRIDIN-3-YL) PYRIMIDIN-2- AMINE FOR TREATING PROLIFERATIVE DISEASES AND CONDITIONS” (AUCENTRA THERAPEUTICS PTY LTD, priority 2019, published 2024).

SMILES strings stand for the structures.

CDK1/CyclinB, sequence (P06493 whole entry, species assumed): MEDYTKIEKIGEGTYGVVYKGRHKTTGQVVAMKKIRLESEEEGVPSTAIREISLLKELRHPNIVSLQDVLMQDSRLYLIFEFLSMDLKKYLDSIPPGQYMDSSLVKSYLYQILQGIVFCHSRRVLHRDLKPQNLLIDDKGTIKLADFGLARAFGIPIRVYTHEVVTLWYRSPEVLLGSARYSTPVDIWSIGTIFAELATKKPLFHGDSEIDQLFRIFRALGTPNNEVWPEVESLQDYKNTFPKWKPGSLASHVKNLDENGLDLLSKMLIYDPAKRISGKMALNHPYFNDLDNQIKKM
CDK1/CyclinB, sequence (P14635 whole entry partner, species assumed): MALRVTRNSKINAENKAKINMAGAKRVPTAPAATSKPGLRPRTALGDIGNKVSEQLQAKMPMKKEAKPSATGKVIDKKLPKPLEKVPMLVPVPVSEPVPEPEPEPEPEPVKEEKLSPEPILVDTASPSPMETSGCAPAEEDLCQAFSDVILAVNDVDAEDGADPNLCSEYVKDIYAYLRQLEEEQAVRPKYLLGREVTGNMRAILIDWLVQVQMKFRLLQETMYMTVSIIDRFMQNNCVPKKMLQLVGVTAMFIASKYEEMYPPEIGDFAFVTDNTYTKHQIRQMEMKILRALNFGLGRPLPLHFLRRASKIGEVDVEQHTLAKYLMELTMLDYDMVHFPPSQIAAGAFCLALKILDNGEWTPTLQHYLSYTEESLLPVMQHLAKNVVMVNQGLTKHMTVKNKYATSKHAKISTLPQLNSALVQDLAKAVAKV
CDK7/CyclinH/Mat1, sequence (P50613 whole entry, species assumed): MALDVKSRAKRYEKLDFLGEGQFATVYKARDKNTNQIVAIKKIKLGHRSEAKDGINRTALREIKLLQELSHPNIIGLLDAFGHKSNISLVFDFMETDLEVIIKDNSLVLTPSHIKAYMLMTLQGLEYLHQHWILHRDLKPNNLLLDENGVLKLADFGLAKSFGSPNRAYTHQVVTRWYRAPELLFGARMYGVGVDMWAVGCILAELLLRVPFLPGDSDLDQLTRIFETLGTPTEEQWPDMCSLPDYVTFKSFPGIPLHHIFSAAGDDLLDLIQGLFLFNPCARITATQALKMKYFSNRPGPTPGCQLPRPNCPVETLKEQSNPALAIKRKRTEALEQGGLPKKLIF
CDK7/CyclinH/Mat1, sequence (P51946 whole entry partner, species assumed): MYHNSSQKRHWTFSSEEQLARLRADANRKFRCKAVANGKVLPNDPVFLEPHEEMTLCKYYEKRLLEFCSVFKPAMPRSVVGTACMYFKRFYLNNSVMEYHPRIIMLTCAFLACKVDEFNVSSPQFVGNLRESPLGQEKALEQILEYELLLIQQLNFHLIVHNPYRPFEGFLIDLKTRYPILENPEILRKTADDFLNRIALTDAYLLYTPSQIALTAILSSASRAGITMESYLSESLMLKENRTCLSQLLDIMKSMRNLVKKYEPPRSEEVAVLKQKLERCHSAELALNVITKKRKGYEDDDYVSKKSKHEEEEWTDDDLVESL
CDK7/CyclinH/Mat1, sequence (P51948 whole entry partner, species assumed): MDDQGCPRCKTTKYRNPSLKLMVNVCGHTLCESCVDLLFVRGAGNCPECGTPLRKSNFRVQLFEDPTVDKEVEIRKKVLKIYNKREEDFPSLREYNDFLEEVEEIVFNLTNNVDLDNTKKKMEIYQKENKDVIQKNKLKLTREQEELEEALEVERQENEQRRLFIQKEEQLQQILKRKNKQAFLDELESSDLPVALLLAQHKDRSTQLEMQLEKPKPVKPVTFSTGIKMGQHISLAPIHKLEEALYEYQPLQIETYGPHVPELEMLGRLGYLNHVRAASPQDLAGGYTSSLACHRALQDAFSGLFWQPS
CDK6/CyclinD3, sequence (Q00534 whole entry, species assumed): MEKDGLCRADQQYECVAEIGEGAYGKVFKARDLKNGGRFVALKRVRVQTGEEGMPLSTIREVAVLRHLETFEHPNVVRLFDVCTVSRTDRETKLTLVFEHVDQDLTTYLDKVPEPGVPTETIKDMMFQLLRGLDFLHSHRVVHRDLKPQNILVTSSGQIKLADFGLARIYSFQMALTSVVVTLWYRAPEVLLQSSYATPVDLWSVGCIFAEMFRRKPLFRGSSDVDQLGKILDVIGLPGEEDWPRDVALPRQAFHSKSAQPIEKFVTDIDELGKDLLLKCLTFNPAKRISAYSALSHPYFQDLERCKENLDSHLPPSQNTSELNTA
CDK6/CyclinD3, sequence (P30281 whole entry partner, species assumed): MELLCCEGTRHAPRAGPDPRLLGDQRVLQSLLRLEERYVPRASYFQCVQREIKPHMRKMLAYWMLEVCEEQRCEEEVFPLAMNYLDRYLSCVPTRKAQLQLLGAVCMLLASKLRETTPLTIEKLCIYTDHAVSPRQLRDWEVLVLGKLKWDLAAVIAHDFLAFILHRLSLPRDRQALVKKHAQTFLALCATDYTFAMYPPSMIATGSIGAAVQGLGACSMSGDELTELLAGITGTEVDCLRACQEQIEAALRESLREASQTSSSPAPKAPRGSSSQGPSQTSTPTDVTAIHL
CDK9/CyclinT1, sequence (P50750 whole entry, species assumed): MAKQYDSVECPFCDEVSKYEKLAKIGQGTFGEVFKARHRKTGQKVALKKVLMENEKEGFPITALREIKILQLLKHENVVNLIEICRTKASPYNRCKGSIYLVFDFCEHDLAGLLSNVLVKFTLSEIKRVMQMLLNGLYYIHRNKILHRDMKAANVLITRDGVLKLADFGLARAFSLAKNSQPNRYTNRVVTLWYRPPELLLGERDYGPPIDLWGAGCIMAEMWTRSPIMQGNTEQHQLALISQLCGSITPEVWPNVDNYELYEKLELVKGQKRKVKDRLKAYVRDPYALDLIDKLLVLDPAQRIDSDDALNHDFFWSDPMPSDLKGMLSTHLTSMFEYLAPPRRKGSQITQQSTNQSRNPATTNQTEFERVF
CDK9/CyclinT1, sequence (O60563 whole entry partner, species assumed): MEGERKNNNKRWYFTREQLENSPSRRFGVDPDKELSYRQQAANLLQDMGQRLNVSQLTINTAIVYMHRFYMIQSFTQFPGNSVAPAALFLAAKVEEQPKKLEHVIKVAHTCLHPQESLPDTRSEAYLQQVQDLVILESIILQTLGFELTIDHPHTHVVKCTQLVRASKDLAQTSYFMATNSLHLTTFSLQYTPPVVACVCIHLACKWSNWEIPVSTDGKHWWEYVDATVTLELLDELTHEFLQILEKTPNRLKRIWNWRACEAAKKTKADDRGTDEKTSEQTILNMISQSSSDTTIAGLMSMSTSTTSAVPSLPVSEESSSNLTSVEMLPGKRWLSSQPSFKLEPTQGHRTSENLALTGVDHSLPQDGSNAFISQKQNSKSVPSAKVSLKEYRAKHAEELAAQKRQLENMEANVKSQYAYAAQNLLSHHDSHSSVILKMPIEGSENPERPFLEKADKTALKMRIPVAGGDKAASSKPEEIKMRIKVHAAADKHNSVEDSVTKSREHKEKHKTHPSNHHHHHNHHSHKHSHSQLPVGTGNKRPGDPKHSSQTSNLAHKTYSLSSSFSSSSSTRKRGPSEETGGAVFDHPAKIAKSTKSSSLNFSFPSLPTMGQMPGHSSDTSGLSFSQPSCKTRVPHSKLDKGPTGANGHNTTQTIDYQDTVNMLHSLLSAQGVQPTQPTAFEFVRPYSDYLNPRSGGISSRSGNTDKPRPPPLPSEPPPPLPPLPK

For `O=C1NCCC12CCN(c1ccc(Nc3nccc(-c4cnc5ccc(-c6cnn(C(F)F)c6)cn45)n3)cn1)CC2` [Compound 73, 8-(5-((4-(6-(1-(Difluoromethyl)-1H-pyrazol-4-yl)imidazo[1,2-a]pyridin-3-yl)pyrimidin-2-yl)amino)pyridin-2-yl)-2,8-diazaspiro[4.5]decan-1-one], the remaining activity at 1 µM in experiment [1] came to 97%; in experiment [4] it was 73%; in experiment [5], 82%; in experiment [7], 80%; in experiment [8], 83%. Moreover, the inhibition constant (Ki) (commonly a measure of affinity in units of concentration, obtained from inhibition or displacement) was above 500 nM in experiment [2] and 116 nM in experiment [6]. The GI50 (as a rule, the concentration that inhibits growth by half) in experiment [3] came to 14 nM.

With `CCN1CCN(Cc2ccc(Nc3nccc(-c4cnc5ccc(Br)cn45)n3)cn2)CC1` [Compound 79, 4-(6-Bromoimidazo[1,2-a]pyridin-3-yl)-N-(6-((4-ethylpiperazin-1-yl)methyl)pyridin-3-yl)pyrimidin-2-amine], the remaining activity at 1 µM amounted to 27% in experiment [1], 70% in experiment [4] and 48% in experiment [5]. Further, the Ki was 57 nM in experiment [2], 70 nM in experiment [6], 42 nM in experiment [7] and 168 nM in experiment [8]. Besides, the GI50 in experiment [3] was found to be 38 nM.

As for `CCS(=O)(=O)N1CCN(c2ccc(Nc3nccc(-c4cnc5ccc(Br)cn45)n3)cn2)CC1` [Compound 59, 4-(6-Bromoimidazo[1,2-a]pyridin-3-yl)-N-(6-(4-(ethylsulfonyl)piperazin-1-yl)pyridin-3-yl)pyrimidin-2-amine], the remaining activity at 1 µM in experiment [1] is 49%; in experiment [4], 70%; in experiment [5], 52%; in experiment [7], 44%; in experiment [8], 88%. Moreover, the inhibitory constant (Ki) turned out to be 234 nM in experiment [2] and 86 nM in experiment [6]. Further, the GI50 in experiment [3] came out at 32 nM.

Turning to `CC(=O)N1CCN(c2ccc(Nc3nccc(-c4cnc5ccc(Br)cn45)n3)cn2)CC1` [Compound 44, 1-(4-(5-((4-(6-Bromoimidazo[1,2-a]pyridin-3-yl)pyrimidin-2-yl)amino)pyridin-2-yl)piperazin-1-yl)ethan-1-one], the remaining activity at 1 µM in experiment [1] was 55%; in experiment [4], 56%; in experiment [5] it was 84%; in experiment [7], 28%; in experiment [8], 77%. The figures for the Ki in experiment [2] and in experiment [6] were 719 nM and 137 nM, respectively. In addition, the 50% growth inhibitory concentration (GI50) in experiment [3] turned out to be 21 nM.

For `CN1CCN(Cc2ccc(Nc3nccc(-c4cnc5ccc(Br)cn45)n3)cn2)CC1` [Compound 77, 4-(6-Bromoimidazo[1,2-a]pyridin-3-yl)-N-(6-((4-methylpiperazin-1-yl)methyl)pyridin-3-yl)pyrimidin-2-amine], the remaining activity at 1 µM in experiment [1] turned out to be 48%; in experiment [4], 74%; in experiment [5] it was 52%; in experiment [8] it was 40%. Besides, the inhibition constant (Ki) in experiment [2] worked out at 51 nM; in experiment [6], 70 nM; in experiment [7] it was 40 nM. Besides, the GI50 in experiment [3] was determined as 35 nM.

Take `Cc1nc2ccc(F)cn2c1-c1ccnc(Nc2ccc(N3CCN(C)CC3)nc2)n1` [Compound 2, 4-(6-Fluoro-2-methylimidazo[1,2-a]pyridin-3-yl)-N-(6-(4-methylpiperazin-1-yl)pyridin-3-yl)pyrimidin-2-amine]: the Ki in experiment [1] (Km ATP, read-out: Enzymatic inhibition, Ki, CDK6 D3) is 54 nM; in experiment [2] it was 168 nM; in experiment [4] (Km ATP, read-out: Enzymatic inhibition, Ki, CDK1 B), 152 nM; in experiment [5] (Km ATP, read-out: Enzymatic inhibition, Ki, CDK4 D1) it was 55 nM; in experiment [6] it was 3 nM; in experiment [7], 63 nM. Further, the Ki in experiment [8] worked out at 560 nM. For the same molecule, the 50% growth inhibitory concentration (GI50) in experiment [3] turned out to be 78 nM.

Regarding `CN1CCN(Cc2ccc(Nc3nccc(-c4cnc5ccc(-c6ccccc6)cn45)n3)cn2)CC1` [Compound 78, N-(6-((4-Methylpiperazin-1-yl)methyl)pyridin-3-yl)-4-(6-phenylimidazo[1,2-a]pyridin-3-yl)pyrimidin-2-amine], the remaining activity at 1 µM in experiment [1] was found to be 64%; in experiment [4], 99%; in experiment [5], 95%; in experiment [7], 46%; in experiment [8], 38%. In addition, the results for the Ki in experiment [2] and in experiment [6] were 65 nM and 90 nM, respectively. In experiment [3], the concentration for 50% growth inhibition (GI50) is 105 nM.

Take `CC(C)N1CCN(c2ccc(Nc3nccc(-c4cnc5ccc(-c6ccccc6)cn45)n3)cn2)CC1` [Compound 39, N-(6-(4-Isopropylpiperazin-1-yl)pyridin-3-yl)-4-(6-phenylimidazo[1,2-a]pyridin-3-yl)pyrimidin-2-amine]: the results for the remaining activity at 1 µM in experiment [1], in experiment [4] and in experiment [5] were 41%, 46% and 55%, respectively. For the same molecule, the Ki in experiment [2] amounted to 9 nM; in experiment [6], 12 nM; in experiment [7], 563 nM; in experiment [8], 149 nM. Besides, the 50% growth inhibitory concentration (GI50) in experiment [3] turned out to be 88 nM.

In the case of `CCCNc1ccc(Nc2nccc(-c3cnc4ccc(-c5cnn(C(F)F)c5)cn34)n2)cn1` [Compound 76, N^5-(4-(6-(1-(Difluoromethyl)-1H-pyrazol-4-yl)imidazo[1,2-a]pyridin-3-yl)pyrimidin-2-yl)-N^2-propylpyridine-2,5-diamine], the remaining activity at 1 µM stood at 71% in experiment [1]; 96% in experiment [4]; 97% in experiment [5]; 62% in experiment [7]; 57% in experiment [8]. The figures for the Ki in experiment [2] and in experiment [6] were 629 nM and 100 nM, respectively. Further, the GI50 in experiment [3] amounted to 39 nM.

`CCN1CCN(Cc2ccc(Nc3nccc(-c4cnc5ccc(-c6ccccc6)cn45)n3)cn2)CC1` [Compound 80, N-(6-((4-Ethylpiperazin-1-yl)methyl)pyridin-3-yl)-4-(6-phenylimidazo[1,2-a]pyridin-3-yl)pyrimidin-2-amine]: the remaining activity at 1 µM in experiment [1] is 59%; in experiment [4], 92%; in experiment [5], 81%; in experiment [7], 37%. Besides, the Ki in experiment [2] was 60 nM; in experiment [6] it was 60 nM; in experiment [8] it was 222 nM. Also, the 50% growth inhibitory concentration (GI50) in experiment [3] was determined as 102 nM.

`Brc1ccc2ncc(-c3ccnc(Nc4ccc(N5CCCC5)nc4)n3)n2c1` [Compound 26, 4-(6-Bromoimidazo[1,2-a]pyridin-3-yl)-N-(6-(pyrrolidin-1-yl)pyridin-3-yl)pyrimidin-2-amine]: the remaining activity at 1 µM in experiment [1] was 53%; in experiment [4], 60%; in experiment [5], 92%; in experiment [7], 27%. The inhibition constant (Ki) was 261 nM in experiment [2], 91 nM in experiment [6] and above 5000 nM in experiment [8]. The GI50 in experiment [3] is 37 nM.
